Entries after “also recorded” stand apart in the source; their conditions may differ. Counter-ions that a name gives are not always drawn.
How the values were obtained:
LTB4 [1] = assay: Suppressing production and liberation of LTB4 from TNB-colitis rat colon; type: in vivo; settings: 100 mg/kg oral, 6 hours, A23187 5 μg/ml
Method: (§1) Functions of suppressing production and liberation of LTB4 and TxB2 from TNB (trinitrobenzenesulfonic acid)-colitis rat colon Rat TNB-colitis was induced in accordance with the method reported by Morris et al. [Gastroenterology, 96, 795-803 (1989)]. Namely, each of male F344 rats aged 9 weeks was fasted for 2 days and then etherized. A sound (1.2×80 mm, manufactured by Fuehigami Kikai-ten) was inserted into the rectum of the animal to inject 0.25 ml of a 120 mg/ml solution of TNB (a product of Tokyo Kasei K. K.) in 50% ethanol into the colon cavity. The effects of each compound on the production and liberation of LTB4 and TxB2 from the colon of the TNB-colitis rat were evaluated by using the rat 7 days after the injection of TNB. Namely, each compound (5% suspension in methylcellulose) was orally administered to the rat in a dose of 0.5 ml/100 g body weight. After 6 hours, the animal was deeply deeply etherlzed and subjected to autopsy. Thus the colon tissue was extirpated. The colon was incubated in Tyrode's solution (CALBIOCHEM containing 5 μg/ml of A23187-calcium ionophore) at 37° C. for 20 minutes in accordance with the method of […] et al. [Biochim. Biophys. Acta, 878, 184-193 (1986)]. Then LTB4, TxB2 and PGE2 thus produced and liberated into the medium were determined by radioimmunoassay (RXA).

LTB4 [2] = assay: Suppressing production of leukotriene B4 (LTB4) from rat peritoneal exudation cells; type: cell-based; settings: A23187 2 μg/ml, read-out: Production suppressing function IC50, LTB4
Method: (§2) After 20 to 24 hours, peritoneal exudation cells were collected from the rats, washed and suspended in the Hank's buffer salt solution (HESS) at a concentration of 5×10^6 /ml. Then 100 μl/well of the obtained cell suspension was […] into a 96-well culture plate (Costar^R) containing 10 μl/well of a sample drug diluted to a given concentration. The plate was incubated at 37° C. for 5 minutes and A23187 (CALBIOCHEM®) was added thereto so as to give a final concentration of 2 μg/ml. After incubating at 37° C. for additional 10 minutes, the plate was transferred on ice and a B[…] solution was added thereto so as to give a final concentration of 100 μM. This plate was centrifuged at 15,000 rpm for 10 minutes and the supernatant was collected. Then the LTB4, TxB2 and PGE2 present in the supernatant were determined by enzyme immunoassay with the use of an EIA Kit manufactured by CAYMAN.

PGE2 [3] = assay: Suppressing production and liberation of PGE2 from TNB-colitis rat colon; type: in vivo; settings: 100 mg/kg oral, 6 hours, A23187 5 μg/ml
Method: as §1

TxB2 [4] = assay: Suppressing production and liberation of TxB2 from TNB-colitis rat colon; type: in vivo; settings: 100 mg/kg oral, 6 hours, A23187 5 μg/ml
Method: as §1

TxB2 [5] = assay: Suppressing production of thromboxane B2 (TxB2) from rat peritoneal exudation cells; type: cell-based; settings: A23187 2 μg/ml, read-out: Production suppressing function IC50, TxB2
Method: as §2

PGE2 [6] = assay: Effect on production of prostaglandin E2 (PGE2) from rat peritoneal exudation cells; type: cell-based; settings: A23187 2 μg/ml
Method: as §2

TNB-colitis = assay: Therapeutic effects on TNB-colitis (MPO in colon); type: in vivo, rat; settings: once a day for 11 days
Method: Therapeutic effects on TNB-colitis
Rat TNB-colitis was induced in accordance with the method reported by Morris et al. [Gastroenterology, 96, 795-808 (1989)]. Namely, each of male F344 rats aged 9 weeks was fasted for 2 days and then etherized. A sound (1.2×80 mm, manufactured by Fuchigami Kikai-ten) was inserted into the rectum of the animal to inject 0.25 ml of a 120 mg/ml solution of TNB (a product of Tokyo Kasei K. K.) in 50% ethanol into the colon cavity. 3 days after the injection of TNB, each compound (5% suspension in methylcellulose) was orally administered once a day for 11 days. 14 days after the injection of TNB, the animal was subjected to autopsy and the colon was extirpated. The extent of damage to the colon was evaluated by determining MPO (myeloperoxidase) present therein.
The therapeutic ratio was calculated according to the following equation:
therapeutic ratio=(5% methylcellulose group-ethanol group)-(invention
compound group-ethanol group).

rats = assay: Toxicity test, 28 days repeated administration; type: in vivo, rat; settings: 200 mg/kg once a day for 28 days

| IC50 (LTB4 [2]) | IC50 (TxB2 [5]) | Compound | Suppression ratio (%), LTB4 (LTB4 [1]) | Suppression ratio (%), PGE2 (PGE2 [3]) | Suppression ratio (%), TxB2 (TxB2 [4]) | Production suppressing function, PGE2 (in words) (PGE2 [6]) | Therapeutic ratio (%) (TNB-colitis; 100 mg/kg/day oral) | abnormality caused by the administration (rats) | Production suppressing function, PGE2 (in words) (PGE2 [6]; dihydrochloride) | Therapeutic ratio (%) (TNB-colitis; 10 mg/kg/day oral) |
| --- | --- | --- | --- | --- | --- | --- | --- | --- | --- | --- |
| 90 nM | 5460 nM | COc1cc2nc(NCc3cccnc3)sc2c(OC)c1O [Example 1, 6-Hydroxy-5,7-dimethoxy-2-(3-pyridylmethyl)aminobenzothiazole] | 19% | 10% | 55% | enhanced at 1-10 μM; also recorded: suppressed at 100 μM | – | – | – | – |
| 380 nM | 730 nM | CNc1nc2c(C(OC(C)=O)c3cccnc3)c(C)c(O)c(C)c2s1 (centres unmarked) [Example 9, {4-(6-Hydroxy-5,7-dimethyl-2-methylamino)benzothiazoyl}-(3-pyridyl)methyl acetate] | – | – | – | enhanced at 0.1-100 μM | – | – | – | – |
| – | – | CNc1nc2c(Cc3cccnc3)c(C)c(O)c(C)c2s1 [Example 10, 6-Hydroxy-5,7-dimethyl-2-methylamino-4-(3-pyridylmethyl)benzothiazole] | – | – | – | enhanced at 0.1-10 μM | – | no abnormality caused by the administration of the drug was observed | – | – |
| < 100 nM | 90 nM | CCCNc1nc2c(Cc3cccnc3)c(C)c(O)c(C)c2s1.Cl.Cl [Example 12, 6-Hydroxy-5,7-dimethyl-2-propylamino-4-(3-pyridylmethyl)benzothiazole dihydrochloride] | – | – | – | – | – | – | enhanced at 0.1-10 μM; also recorded: suppressed at 100 μM | – |
| 250 nM | 5310 nM | Cc1c(O)c(Cc2cccnc2)c2sc(N)nc2c1C.Cl.Cl [Example 15, 2-Amino-6-hydroxy-4,5-dimethyl-7-(3-pyridylmethyl)benzothiazole dihydrochloride] | – | – | – | enhanced at 0.1-100 μM | – | – | – | – |
| 190 nM | 2 nM | Cc1c(O)c(C)c2sc(N)nc2c1Cc1cccnc1 [Example 18, 2-Amino-6-hydroxy-5,7-dimethyl-4-(3-pyridylmethyl)benzothiazole dihydrochloride] | – | – | – | – | – | – | – | – |
| 170 nM | 110 nM | COc1c(O)c(C)c2sc(N)nc2c1Cc1cccnc1 [Example 20, 2-Amino-6-hydroxy-5-methoxy-7-methyl-4-(3-pyridylmethyl)benzothiazole dihydrochlorlde] | – | – | – | enhanced at 0.1-100 μM | – | – | – | – |
| 170 nM | 1280 nM | CNc1nc2c(Cc3cccnc3)c(OC)c(O)c(C)c2s1 [Example 21, 6-Hydroxy-5-methoxy-7-methyl-2-methylamino-4-(3-pyridylmethyl)benzothiazoledihydrochloride] | – | – | – | – | – | – | – | – |
| 150 nM | 180 nM | CCc1c(O)c(OC)c(Cc2cccnc2)c2nc(N)sc12 [Example 22, 2-Amino-7-ethyl-6-hydroxy-5-methoxy-4-(3-pyridylmethyl)benzothiazole dihydrochloride] | – | – | – | – | – | – | – | – |
| < 100 nM | 330 nM | CCc1c(O)c(OC)c(Cc2cccnc2)c2nc(NC)sc12.Cl.Cl [Example 23, 7-Ethyl-6-hydroxy-5-methoxy-2-methylamino-4-(3-pyridylmethyl)benzothiazole dihydrochloride] | – | – | – | – | – | – | enhanced at 0.1-10 μM; also recorded: suppressed at 100 μM | – |
| – | – | C[C@]12C=CC(=O)C=C1CC[C@@H]1[C@@H]2[C@@H](O)C[C@@]2(C)[C@H]1CC[C@]2(O)C(=O)CO [prednisolone, reference compound] | – | – | – | – | – | – | – | 60% |

| Compound | IC50 (LTB4 [2]) | IC50 (TxB2 [5]) | Suppression ratio (%), LTB4 (LTB4 [1]) | Suppression ratio (%), PGE2 (PGE2 [3]) | Suppression ratio (%), TxB2 (TxB2 [4]) | Production suppressing function, PGE2 (in words) (PGE2 [6]) | Therapeutic ratio (%) (TNB-colitis; 100 mg/kg/day oral) | abnormality caused by the administration (rats) | Production suppressing function, PGE2 (in words) (PGE2 [6]; dihydrochloride) | Therapeutic ratio (%) (TNB-colitis; 10 mg/kg/day oral) |
| --- | --- | --- | --- | --- | --- | --- | --- | --- | --- | --- |
| Cc1c(O)c(C)c2sc(NCc3cccnc3)nc2c1C [Example 4, 6-Hydroxy-4,5,7-trimethyl-2-(3-pyridylmethyl)aminobenzothiazole] | < 100 nM | 1950 nM | 93% | 30% | 72% | enhanced at 0.1-1 μM; also recorded: suppressed at 10 μM or above | 31% | – | – | – |
| Cc1cc(O)c(C)c2sc(NCc3cccnc3)nc12 [Example 5, 6-Hydroxy-4,7-dimethyl-2-(3-pyridylmethyl)aminobenzothiazole] | < 100 nM | 4390 nM | 94% | 30% | 36% | enhanced at 0.1-10 μM; also recorded: suppressed at 100 μM | 53% | – | – | – |
| CCNc1nc2c(Cc3cccnc3)c(C)c(O)c(C)c2s1.Cl.Cl [Example 11, 2-Ethylamino-6-hydroxy-5,7-dimethyl-4-(3-pyridylmethyl)benzothiazole dihydrochloride] | < 100 nM | 100 nM | 94% | 0% | 85% | – | 41% | – | enhanced at 0.1-10 μM; also recorded: suppressed at 100 μM | – |
| CCNc1nc2c(C)c(Cc3cccnc3)c(O)c(C)c2s1 [Example 14, 2-Ethylamino-6-hydroxy-4,7-dimethyl-5-(3-pyridylmethyl)benzothiazole] | 230 nM | 650 nM | 83% | 8% | 67% | enhanced at 0.1-1 μM; also recorded: suppressed at 100 μM | 32% | – | – | – |
| CCNc1nc2c(C)c(C)c(O)c(Cc3cccnc3)c2s1 [Example 17, 2-Ethylamino-6-hydroxy-4,5-dimethyl-7-(3-Pyridylmethyl)benzothiazole] | < 100 nM | 2000 nM | 89% | 41% | 53% | enhanced at 1 μM; also recorded: suppressed at 100 μM | 40% | – | – | – |

Reference: patent US5635519A, “Benzothiazole compounds which are substituted by pyridymethyl” (Eisai Co., Ltd., priority 1991, dated 1997)
